Data as given in PubChem BioAssay (NCI).
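Cultured in 96-well plates, cells were exposed to test compound for 48 hours across five concentrations. TGI is the concentration that stops growth completely.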

Experiments:
Experiment in all cases: NCI-60 cell line screen, 48 h
HOP-92 NSCLC = tested on: HOP-92 NSCLC
OVCAR-4 ovarian = tested on: OVCAR-4 ovarian
SW-620 colon = tested on: SW-620 colon
OVCAR-8 ovarian = tested on: OVCAR-8 ovarian
SF-539 CNS = tested on: SF-539 CNS
HL-60(TB) leukemia = tested on: HL-60(TB) leukemia
786-0 renal = tested on: 786-0 renal
HCT-116 colon = tested on: HCT-116 colon
SNB-75 CNS = tested on: SNB-75 CNS
HT29 colon = tested on: HT29 colon

| SMILES | TGI (HOP-92 NSCLC) [µM] | TGI (OVCAR-4 ovarian) [µM] | TGI (SW-620 colon) [µM] | TGI (OVCAR-8 ovarian) [µM] | TGI (SF-539 CNS) [µM] | TGI (HL-60(TB) leukemia) [µM] | TGI (786-0 renal) [µM] | TGI (HCT-116 colon) [µM] | TGI (SNB-75 CNS) [µM] | TGI (HT29 colon) [µM] |
| --- | --- | --- | --- | --- | --- | --- | --- | --- | --- | --- |
| O=C(NCCNCCO)N/N=C/c1cccc([N+](=O)[O-])c1 | > 100 | > 100 | > 100 | > 100 | > 100 | > 100 | > 100 | > 100 | > 100 | > 100 |
| COC(=O)C(=O)C(C(=O)C(=O)Nc1ccccc1C(=O)OC)c1nc2ccc(C(=O)c3ccccc3)cc2[nH]c1=O (stereo not given) | > 100 | 88.8 | > 100 | > 100 | > 100 | > 100 | > 100 | > 100 | > 100 | > 100 |
| [N-]=N[N+]#I1OC(C(F)(F)F)(C(F)(F)F)c2ccccc21 | 27 | 28.9 | 40 | 34.5 | 30.6 | 30.6 | 31.6 | 38.2 | 32.5 | 35.3 |
| NC1=CN(CCCO)C2=N/C(=C\c3ccco3)C(=O)N12 | > 100 | > 100 | > 100 | > 100 | > 100 | > 100 | > 100 | > 100 | > 100 | > 100 |
| CS(=O)(=O)NNS(=O)(=O)c1ccc(Br)cc1 | > 100 | > 100 | > 100 | > 100 | > 100 | > 100 | > 100 | > 100 | > 100 | > 100 |
| CN(C)CC1CCC/C(=C\c2ccc(N(C)C)cc2)C1=O (stereo not given) | 9.79 | 4.4 | 3.29 | 18 | 28.8 | > 100 | 10.8 | 10.1 | 30.7 | 3.6 |
| O=[N+]([O-])/C(C(Cl)=C(Cl)Cl)=C1\Nc2ccccc2O1 | 62.4 | > 100 | > 100 | 63.9 | 38.6 | 48.7 | 32.1 | > 100 | 64.8 | > 100 |
| Cc1c2c(n3c(nc4ccccc43)c1C#N)N(c1ccc(Cl)cc1)CC2 | > 100 | > 100 | > 100 | > 100 | > 100 | > 100 | > 100 | > 100 | > 100 | > 100 |
| CCOC(=O)C1(Cc2ccc(C)cc2)Cc2ccc(C)cc2C1=O (stereo not given) | > 100 | > 100 | > 100 | > 96.6 | 58.5 | 23.6 | > 100 | > 60.2 | > 100 | 49.1 |
| COc1c(C2(c3ccc(F)cc3)SCCCS2)c(=O)c1=O | > 100 | > 100 | > 100 | > 100 | > 100 | > 100 | > 100 | > 100 | > 100 | > 100 |
| Oc1c(Cl)c2nccnc2c2ccccc12 | > 100 | > 100 | > 100 | > 100 | > 100 | > 100 | > 100 | > 100 | > 100 | > 100 |
| O=C1CC(NC(=O)C(F)(F)F)c2c(Br)sc(N3CCC(c4ccccc4)CC3)c21 (stereo not given) | 41.1 | 92.6 | > 100 | > 100 | > 100 | > 100 | > 100 | > 100 | > 100 | > 100 |
| N#CC(c1ccc(O)cc1)N1CCN(C(C#N)c2ccc(O)cc2)CC1 (stereo not given) | 60.1 | > 100 | > 100 | > 53.1 | > 100 | > 100 | > 100 | > 100 | 48.1 | > 100 |
| c1cnc2c(c1)-n1cccc1C1(CCOCC1)NN2 | > 100 | > 100 | > 100 | > 100 | > 100 | > 100 | > 100 | > 100 | > 100 | > 100 |
| Cc1cc(-c2ccc(C(=O)C(Cl)(Cl)Cl)[nH]2)on1 | > 100 | 70.1 | > 100 | > 100 | 33 | 64.6 | > 100 | > 100 | > 100 | 76.8 |
| NCCC1(N)CCNCC1 | > 100 | > 100 | > 100 | > 100 | > 100 | > 100 | > 100 | > 100 | > 100 | > 100 |
| Cc1ccc(N=Nc2c(O)c3ccccc3[nH]c2=O)c(S(=O)(=O)N(C)C)c1 | > 100 | > 100 | > 100 | > 100 | > 100 | > 100 | > 100 | > 100 | > 100 | > 100 |
